In ChEMBL document CHEMBL4028801, “A multifactorial approach to hepatobiliary transporter assessment enables improved therapeutic compound development” (Toxicol Sci, 2013):
Structures can show the parent of a compound that is named as a salt.

How the values were obtained:
[1] = molecular target: T1, ATP-binding cassette sub-family C member 4 (Homo sapiens, UniProt O15439); assay: Inhibition of human MRP4 overexpressed in Sf9 cell membrane vesicles assessed as uptake of [3H]-estradiol-17beta-D-glucuronide in presence of ATP and GSH measured after 20 mins by membrane vesicle transport assay; format: ADME, cell-based
T1 sequence (O15439 whole entry): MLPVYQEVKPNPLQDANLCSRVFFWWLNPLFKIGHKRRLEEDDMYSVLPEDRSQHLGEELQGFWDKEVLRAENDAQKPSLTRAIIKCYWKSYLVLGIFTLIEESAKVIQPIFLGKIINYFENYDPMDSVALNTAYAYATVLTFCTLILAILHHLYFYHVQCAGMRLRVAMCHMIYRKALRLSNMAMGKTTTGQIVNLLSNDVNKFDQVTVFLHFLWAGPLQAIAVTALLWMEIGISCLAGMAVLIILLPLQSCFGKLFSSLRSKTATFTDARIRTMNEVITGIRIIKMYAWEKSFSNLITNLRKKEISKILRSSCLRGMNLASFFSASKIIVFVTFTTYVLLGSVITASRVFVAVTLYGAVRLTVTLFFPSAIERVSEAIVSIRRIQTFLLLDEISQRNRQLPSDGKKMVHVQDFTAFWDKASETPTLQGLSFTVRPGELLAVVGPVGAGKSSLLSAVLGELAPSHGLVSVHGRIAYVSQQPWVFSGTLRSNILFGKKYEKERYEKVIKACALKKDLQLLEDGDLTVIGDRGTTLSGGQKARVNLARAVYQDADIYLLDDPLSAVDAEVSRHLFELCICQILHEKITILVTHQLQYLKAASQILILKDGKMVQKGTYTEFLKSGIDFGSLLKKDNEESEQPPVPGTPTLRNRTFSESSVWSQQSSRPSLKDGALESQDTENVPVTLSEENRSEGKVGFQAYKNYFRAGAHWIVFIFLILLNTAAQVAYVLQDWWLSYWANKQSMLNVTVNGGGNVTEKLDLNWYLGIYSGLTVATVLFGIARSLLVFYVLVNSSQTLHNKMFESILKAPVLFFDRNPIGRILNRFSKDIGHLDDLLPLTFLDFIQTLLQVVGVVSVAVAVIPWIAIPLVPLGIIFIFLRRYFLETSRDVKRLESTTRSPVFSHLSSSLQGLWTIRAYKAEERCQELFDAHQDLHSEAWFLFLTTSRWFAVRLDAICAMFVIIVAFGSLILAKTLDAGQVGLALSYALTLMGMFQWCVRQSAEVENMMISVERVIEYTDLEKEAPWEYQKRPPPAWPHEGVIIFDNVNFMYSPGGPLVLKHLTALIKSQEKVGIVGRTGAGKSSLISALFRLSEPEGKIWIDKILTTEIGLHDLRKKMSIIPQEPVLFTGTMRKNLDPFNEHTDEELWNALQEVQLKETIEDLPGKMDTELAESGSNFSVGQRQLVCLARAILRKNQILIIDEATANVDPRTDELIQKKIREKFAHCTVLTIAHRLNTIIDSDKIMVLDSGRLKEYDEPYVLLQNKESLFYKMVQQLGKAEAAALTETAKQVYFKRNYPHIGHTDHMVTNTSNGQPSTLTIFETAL

[2] = molecular target: ATP-binding cassette sub-family C member 2 (Homo sapiens, UniProt Q92887); assay: Inhibition of human MRP2 overexpressed in Sf9 cell membrane vesicles assessed as uptake of [3H]-estradiol-17beta-D-glucuronide in presence of ATP and GSH measured after 20 mins by membrane vesicle transport assay
Chain of ATP-binding cassette sub-family C member 2 (Q92887 whole entry): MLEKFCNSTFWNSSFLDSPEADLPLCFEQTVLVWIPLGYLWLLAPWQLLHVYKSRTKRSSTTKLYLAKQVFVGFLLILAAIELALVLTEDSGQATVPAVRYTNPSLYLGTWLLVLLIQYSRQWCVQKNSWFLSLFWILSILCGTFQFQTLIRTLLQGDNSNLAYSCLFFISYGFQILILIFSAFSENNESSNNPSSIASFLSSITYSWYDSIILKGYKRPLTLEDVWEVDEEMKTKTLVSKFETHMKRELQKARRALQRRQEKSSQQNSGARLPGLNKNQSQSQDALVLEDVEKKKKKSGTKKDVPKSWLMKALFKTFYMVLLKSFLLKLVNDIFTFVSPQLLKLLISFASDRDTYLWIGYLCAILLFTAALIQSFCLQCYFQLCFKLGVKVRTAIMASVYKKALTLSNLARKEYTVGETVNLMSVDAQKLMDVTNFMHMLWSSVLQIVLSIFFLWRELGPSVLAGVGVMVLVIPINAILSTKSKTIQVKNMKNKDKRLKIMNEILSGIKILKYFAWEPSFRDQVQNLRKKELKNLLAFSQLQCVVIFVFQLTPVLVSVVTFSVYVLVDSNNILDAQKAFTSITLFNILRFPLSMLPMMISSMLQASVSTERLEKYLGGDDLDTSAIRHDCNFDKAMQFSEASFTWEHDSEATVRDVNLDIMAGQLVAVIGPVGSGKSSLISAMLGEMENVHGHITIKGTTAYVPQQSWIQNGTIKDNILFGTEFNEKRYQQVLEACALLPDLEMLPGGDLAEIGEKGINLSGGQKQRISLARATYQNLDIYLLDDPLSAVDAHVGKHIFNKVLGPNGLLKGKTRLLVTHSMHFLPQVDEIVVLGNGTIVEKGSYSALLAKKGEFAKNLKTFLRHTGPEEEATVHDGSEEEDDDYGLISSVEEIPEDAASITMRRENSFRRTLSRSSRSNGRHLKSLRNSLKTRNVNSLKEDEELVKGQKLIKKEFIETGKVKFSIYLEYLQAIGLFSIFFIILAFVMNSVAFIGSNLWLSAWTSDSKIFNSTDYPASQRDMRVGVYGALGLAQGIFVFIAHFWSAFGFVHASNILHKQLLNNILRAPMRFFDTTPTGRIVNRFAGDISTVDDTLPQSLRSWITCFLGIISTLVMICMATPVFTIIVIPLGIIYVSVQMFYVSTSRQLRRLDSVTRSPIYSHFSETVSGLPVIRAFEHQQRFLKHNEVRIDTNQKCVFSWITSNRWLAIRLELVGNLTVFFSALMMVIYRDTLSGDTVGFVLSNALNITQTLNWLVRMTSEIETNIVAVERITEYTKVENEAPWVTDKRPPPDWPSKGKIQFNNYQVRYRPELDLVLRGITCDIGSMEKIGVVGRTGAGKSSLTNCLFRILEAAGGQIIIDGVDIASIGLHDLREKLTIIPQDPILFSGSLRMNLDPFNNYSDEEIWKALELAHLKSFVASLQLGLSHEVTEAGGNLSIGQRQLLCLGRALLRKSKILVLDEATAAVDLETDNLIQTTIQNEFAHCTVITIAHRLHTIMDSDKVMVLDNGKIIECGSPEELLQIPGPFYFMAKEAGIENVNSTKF

[3] = molecular target: Bile salt export pump (Homo sapiens, UniProt O95342); assay: Inhibition of human BSEP overexpressed in Sf9 cell membrane vesicles assessed as uptake of [3H]-taurocholate in presence of ATP measured after 15 to 20 mins by membrane vesicle transport assay; format: ADME, cell-based
Chain of Bile salt export pump (O95342 whole entry): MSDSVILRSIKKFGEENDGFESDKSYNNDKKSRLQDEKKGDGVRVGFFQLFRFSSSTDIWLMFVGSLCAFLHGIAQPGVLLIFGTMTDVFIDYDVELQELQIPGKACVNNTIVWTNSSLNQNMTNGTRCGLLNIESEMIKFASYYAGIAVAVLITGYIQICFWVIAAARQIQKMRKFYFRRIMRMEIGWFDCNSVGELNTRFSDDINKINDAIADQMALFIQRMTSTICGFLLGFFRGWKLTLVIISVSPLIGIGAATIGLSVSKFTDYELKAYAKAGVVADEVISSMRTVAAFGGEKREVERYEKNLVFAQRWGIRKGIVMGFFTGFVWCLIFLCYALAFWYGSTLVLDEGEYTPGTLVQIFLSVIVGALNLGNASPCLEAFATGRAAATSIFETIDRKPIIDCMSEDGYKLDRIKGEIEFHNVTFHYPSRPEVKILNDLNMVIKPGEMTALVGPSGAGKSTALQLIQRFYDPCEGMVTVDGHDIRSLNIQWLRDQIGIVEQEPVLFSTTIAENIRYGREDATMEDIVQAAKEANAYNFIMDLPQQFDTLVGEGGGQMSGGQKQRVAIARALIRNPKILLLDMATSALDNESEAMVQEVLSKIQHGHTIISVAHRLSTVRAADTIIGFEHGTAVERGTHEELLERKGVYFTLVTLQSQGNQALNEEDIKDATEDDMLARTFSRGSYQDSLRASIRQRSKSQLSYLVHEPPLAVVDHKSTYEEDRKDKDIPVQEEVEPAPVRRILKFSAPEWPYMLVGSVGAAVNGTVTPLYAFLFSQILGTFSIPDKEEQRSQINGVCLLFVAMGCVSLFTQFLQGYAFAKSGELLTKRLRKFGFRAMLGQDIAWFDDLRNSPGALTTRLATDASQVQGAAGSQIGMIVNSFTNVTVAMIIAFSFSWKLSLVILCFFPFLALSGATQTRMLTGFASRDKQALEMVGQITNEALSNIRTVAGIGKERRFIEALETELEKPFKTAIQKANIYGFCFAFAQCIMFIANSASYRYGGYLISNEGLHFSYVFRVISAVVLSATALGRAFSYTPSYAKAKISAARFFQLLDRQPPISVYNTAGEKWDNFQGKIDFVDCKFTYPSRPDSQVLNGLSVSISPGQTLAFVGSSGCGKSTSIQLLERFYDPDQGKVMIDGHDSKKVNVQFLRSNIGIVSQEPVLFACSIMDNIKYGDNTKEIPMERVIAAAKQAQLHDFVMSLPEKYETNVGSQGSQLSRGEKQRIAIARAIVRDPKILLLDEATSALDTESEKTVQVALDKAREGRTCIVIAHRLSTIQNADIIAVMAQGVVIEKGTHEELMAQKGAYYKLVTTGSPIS

[4] = molecular target: ATP-binding cassette sub-family C member 3 (Homo sapiens, UniProt O15438); assay: Inhibition of human MRP3 overexpressed in Sf9 insect cell membrane vesicles assessed as uptake of [3H]-estradiol-17beta-D-glucuronide in presence of ATP and GSH measured after 10 mins by membrane vesicle transport assay; format: ADME, cell-based
Chain of ATP-binding cassette sub-family C member 3 (O15438 whole entry): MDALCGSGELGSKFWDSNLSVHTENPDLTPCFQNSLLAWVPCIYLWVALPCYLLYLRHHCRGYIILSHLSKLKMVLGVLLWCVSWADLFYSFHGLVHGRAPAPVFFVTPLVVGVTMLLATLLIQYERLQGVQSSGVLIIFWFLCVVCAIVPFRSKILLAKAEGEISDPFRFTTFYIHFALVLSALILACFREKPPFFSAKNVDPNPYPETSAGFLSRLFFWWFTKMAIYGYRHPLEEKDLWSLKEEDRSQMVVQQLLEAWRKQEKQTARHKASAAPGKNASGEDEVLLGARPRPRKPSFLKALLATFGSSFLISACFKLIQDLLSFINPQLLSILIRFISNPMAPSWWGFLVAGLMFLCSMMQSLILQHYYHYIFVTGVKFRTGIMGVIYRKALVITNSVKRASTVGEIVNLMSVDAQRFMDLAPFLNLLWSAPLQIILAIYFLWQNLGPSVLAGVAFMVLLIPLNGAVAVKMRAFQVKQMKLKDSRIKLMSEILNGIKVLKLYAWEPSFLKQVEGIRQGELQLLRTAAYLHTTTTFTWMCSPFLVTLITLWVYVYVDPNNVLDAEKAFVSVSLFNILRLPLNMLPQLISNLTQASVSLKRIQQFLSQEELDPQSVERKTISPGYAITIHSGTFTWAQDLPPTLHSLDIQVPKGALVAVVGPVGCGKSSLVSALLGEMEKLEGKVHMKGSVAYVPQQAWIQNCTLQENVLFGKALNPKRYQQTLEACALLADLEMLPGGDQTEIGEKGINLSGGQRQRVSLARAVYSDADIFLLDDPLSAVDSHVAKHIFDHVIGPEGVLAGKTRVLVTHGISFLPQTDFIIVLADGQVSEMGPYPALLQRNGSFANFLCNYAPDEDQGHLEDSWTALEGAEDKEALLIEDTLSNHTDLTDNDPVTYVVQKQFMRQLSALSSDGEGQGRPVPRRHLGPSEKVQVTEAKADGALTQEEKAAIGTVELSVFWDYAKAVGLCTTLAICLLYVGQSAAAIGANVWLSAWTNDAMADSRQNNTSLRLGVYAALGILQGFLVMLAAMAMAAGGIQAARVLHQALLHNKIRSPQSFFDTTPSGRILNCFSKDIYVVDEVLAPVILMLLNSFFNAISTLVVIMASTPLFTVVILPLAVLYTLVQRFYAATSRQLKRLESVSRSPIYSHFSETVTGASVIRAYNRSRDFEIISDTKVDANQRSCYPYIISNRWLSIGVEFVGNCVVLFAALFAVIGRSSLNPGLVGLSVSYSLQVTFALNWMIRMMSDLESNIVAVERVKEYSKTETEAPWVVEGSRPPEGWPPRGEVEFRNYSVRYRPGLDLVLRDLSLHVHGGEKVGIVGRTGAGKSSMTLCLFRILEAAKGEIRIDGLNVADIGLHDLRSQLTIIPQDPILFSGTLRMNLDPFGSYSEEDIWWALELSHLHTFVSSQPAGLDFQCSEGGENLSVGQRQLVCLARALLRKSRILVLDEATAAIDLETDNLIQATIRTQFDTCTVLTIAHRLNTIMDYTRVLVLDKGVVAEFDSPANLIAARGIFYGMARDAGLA

Measured: IC50

CCOc1ccc(NC(C)=O)cc1 [PHENACETIN]
> 133 µM: [1] | [2] | [3] | [4]

CC1(C)O[C@@H]2C[C@H]3[C@@H]4C[C@H](F)C5=CC(=O)C=C[C@]5(C)[C@H]4[C@@H](O)C[C@]3(C)[C@]2(C(=O)CO)O1 [FLUNISOLIDE]
> 133 µM: [1] | [2] | [3] | [4]

CO[C@H]1O[C@@H]2O[C@@]3(C)CC[C@H]4[C@H](C)CC[C@@H]([C@H]1C)[C@@]24OO3
> 133 µM: [1] | [2] | [3] | [4]

Nc1nc(Cl)nc2c1ncn2[C@@H]1O[C@H](CO)[C@@H](O)[C@@H]1F [CLOFARABINE]
> 133 µM: [1] | [2] | [3] | [4]

CN1C(=O)CC(=O)N(c2ccccc2)c2cc(Cl)ccc21 [CLOBAZAM]
> 133 µM: [1] | [2] | [3] | [4]

CC(=O)CC(c1ccccc1)c1c(O)c2ccccc2oc1=O (stereo not drawn) [WARFARIN SODIUM]
> 133 µM: [1] | [2] | [3] | [4]

Cc1cc(NC(=O)C2=C(O)c3ccccc3S(=O)(=O)N2C)no1 [ISOXICAM]
> 133 µM: [1] | [2] | [3] | [4]

C[C@@H]1CN(c2c(F)c(N)c3c(=O)c(C(=O)O)cn(C4CC4)c3c2F)C[C@H](C)N1 [SPARFLOXACIN]
> 133 µM: [1] | [2] | [3] | [4]

CC(=O)OCC(=O)[C@@]1(O)[C@H](OC(C)=O)C[C@H]2[C@@H]3CCC4=CC(=O)C=C[C@]4(C)[C@@]3(F)[C@@H](O)C[C@@]21C [TRIAMCINOLONE DIACETATE]
> 133 µM: [1] | [2] | [3] | [4]

C[C@H]1COc2c(N3CCN(C)CC3)c(F)cc3c(=O)c(C(=O)O)cn1c23 [LEVOFLOXACIN]
> 133 µM: [1] | [2] | [3] | [4]

O=C(O)P(=O)(O)O [FOSCARNET SODIUM]
> 133 µM: [1] | [2] | [3] | [4]

CC1(C)S[C@@H]2[C@H](NC(=O)[C@H](NC(=O)N3CCNC3=O)c3ccccc3)C(=O)N2[C@H]1C(=O)O [AZLOCILLIN SODIUM]
> 133 µM: [1] | [2] | [3] | [4]

Oc1ccc(C2CNCCc3c2cc(O)c(O)c3Cl)cc1 (stereo not drawn) [FENOLDOPAM MESYLATE]
> 133 µM: [1] | [2] | [3] | [4]

NC(=O)CC[C@@H]1NC(=O)[C@H](Cc2ccccc2)NC(=O)[C@H](Cc2ccc(O)cc2)NC(=O)CCSSC[C@@H](C(=O)N2CCC[C@H]2C(=O)N[C@H](CCCN=C(N)N)C(=O)NCC(N)=O)NC(=O)[C@H](CC(N)=O)NC1=O [DESMOPRESSIN ACETATE]
> 133 µM: [1] | [2] | [3] | [4]

NC(=O)c1cnccn1 [PYRAZINAMIDE]
> 133 µM: [1] | [2] | [3] | [4]

NS(=O)(=O)Cc1noc2ccccc12 [ZONISAMIDE]
> 133 µM: [1] | [2] | [3] | [4]

CCOC(=O)c1ncn2c1CN(C)C(=O)c1cc(F)ccc1-2 [FLUMAZENIL]
> 133 µM: [1] | [2] | [3] | [4]
